Values of other authors as cited in patent US10758465B2, “Synephrine compositions” (Follea International, priority 2017, dated 2020).

Columns and labels:
alpha1-adrenoceptors = settings: postjunctional alpha1-adrenoceptors
alpha2-adrenoceptors = settings: postjunctional alpha2-adrenoceptors

CNC[C@@H](O)c1ccc(O)cc1 [S-(+)-synephrine]
potency relative to the (−) form (alpha1-adrenoceptors): one to two orders of magnitude less | potency relative to the (−) form (alpha2-adrenoceptors): one to two orders of magnitude less
